Test results reported in patent US20220062317A1, “NA+/K+ ATPASE INHIBITORS FOR USE IN THE PREVENTION OR TREATMENT OF METASTASIS” (UNIVERSITÄT BASEL, priority 2018, published 2022).

Key:
BR16 CTC-derived cells = assay: FDA-approved compound screen for CTC cluster dissociation (high content imaging); assay type: cell-based, human; conditions: even at lowest concentration tested (0.1 μM), 2 days, hypoxia
Procedure: In order to identify actionable vulnerabilities of CTC clusters, and to test whether the epigenetic and transcriptional features of clustered CTCs are reversible upon cluster dissociation into single cells the following steps were undertaken. First, the expression of all known cell-cell junction (CCJ) components in patient samples obtained from normal breast (TGCA REF), breast cancer (TOGA REF), single CTCs and CTC clusters were assessed (Aceto et al. Cell 2014). While breast cancer cells tend to only partially reduce their CCJ repertoire compared to normal breast cells, CTCs express only a small fraction of CCJ components, likely as a consequence to their increased motility. Yet, CTC clusters retain a higher number of CCJs as compared to single CTCs. […] To this end, 2′486 FDA-approved compounds were evaluated for their ability to dissociate clusters of human breast CTC-derived cells. Cluster dissociation was assessed using a high content screening microscope and comparing cells treated with each individual compound to steady state clustered BR16 cells and 40 μm-filtered BR16 single cell suspension as negative and positive controls, respectively (FIG. 4a). […] For the majority of the 2′486 FDA-approved compounds, when using a 5 μM concentration for 2 days in hypoxic conditions, no detectable reduction in cell viability (>70% viability) nor mean cluster size (>450 μm2) in BR16 CTC-derived cells was observed. […] These compounds include inhibitors of Na^+/K^+ ATPases (n=6), HDACs (n=2), nucleotide biosynthesis (n=5), kinases (n=4), GPCRs (n=2), cholesterol biosynthesis (n=1), nuclear export (n=1), tubulin (n=9), as well as DNA binding compounds (n=8) and antibiotics (n=1).
A library containing 2,486 FDA-approved compounds was purchased from the Nexus Platform ETH Zurich. Each compound was resuspended using CTC medium at a 15 μM concentration and 20 μl were aliquoted in duplicate in a total of 64 Flat Bottom Clear Ultra Low attachment 96-well plates (Corning, Cat #3474).
To reduce cluster size in CTC derived cell lines, a 40 μm cell strainer was used (Corning, Cat #431750). […] Plates were incubated in hypoxia (5% oxygen) for 2 days and then 20 μl were transferred into a 96 well Black/clear Tissue culture treated plate (BD Falcon, Cat #353219) containing 40 μl of D-PBS (Invitrogen, Cat #14190169) and stained for 1 hr at 37° C. with a final concentration of 4 μM Hoechst 34580 (Invitrogen, Cat #H21486), 2 μM TMRM (Invitrogen, Cat #T668) and 4 μM TOTO-3 (Invitrogen, Cat #T3604). For each plate, two positive controls (non-treated cells) and two negative controls (non-treated and […] cells) were included. Z-factors were calculated per individual plate using the following formula: Z′=1−3(σs+σc)/|μs−μc|^3 (σ: standard deviation, μ: mean, s: positive control and c: negative control) (Martin et al., PLoS One 9, e88338, 2014) and ranged between 0.62-0.937. Plates were scanned using Operetta High Content Imaging System (Perkin Elmer) and cluster analysis was performed using Harmony High Content Imaging and Analysis Software (Perkin Elmer).

BR16 cells = assay: Tail vein injection of in vitro pre-treated BR16 cells, metastasis seeding; assay type: in vivo, NSG mice
Procedure: To test whether ouabain and digitoxin would also enable CTC clusters disruption in vivo, the inventors took a dual approach. First, the inventors tested whether a 17-day in vitro treatment with ouabain and digitoxin would translate into a reduced ability of the treated cells to efficiently seed metastasis in untreated mice (FIG. 7A). To this end, upon treatment, BR16 cells stably expressing GFP-luciferase were injected into the tail vein of NSG mice and noninvasively monitored through luminescence imaging for their ability to seed and propagate metastatic lesions.
(§1) For tail vein experiments, NOD SCID Gamma (NSG) mice (Jackson Labs) were injected with 1×10^6 BR16-mCherry cells resuspended in 100 μl D-PBS and monitored with IVIS Lumina II (Perkin Elmer). For CTC xenograft mouse model isolation, 1×10^6 LM2-GFP, 1×10^6 BRx50-GFP or 1×10^6 BR16-GFP cells were resuspended in 100 μl of 50% Cultrex PathClear Reduced Growth Factor Basement Membrane Extract (R&D Biosystems, Cat #3533-010-02) in D-PBS and injected orthotopically in NSG mice. Blood draw was performed 4-5 weeks after tumor onset for LM2 cells, 5-6 months after tumor onset for BR16 and 6-7 months after tumor onset for BRx50 cells.

BR16 xenografts = assay: BR16 xenograft (mammary fat pad), spontaneous CTC clusters and metastasis; assay type: in vivo, NSG mice; conditions: ouabain daily for three weeks
Procedure: Blood specimens for CTC analysis were obtained from University Hospital Basel after informed patient consent according to protocol EKNZ BASEC 2016-00067 and EK 321/10, which received ethical approval from the Swiss authorities (EKNZ, Ethics Committee northwest/central Switzerland). An average of 7.5 ml of blood per patient was drawn in EDTA vacutainers. Within 1 hr from blood draw, the blood was processed through Parsortix GEN3D6.5 Cell Separation Cassette (Angle Europe). For mouse studies, blood was retrieved via cardiac puncture and 1 ml of blood was similarly processed through a Parsortix device. Captured CTCs were further stained on Parsortix cassette with EpCAM-AF488 conjugated (CellSignaling, Cat #CST5198), HER2-AF488 (#324410, BioLegend), EGFR-FITC conjugated (GeneTex, Cat #GTX11400) and CD45-BV605 conjugated (Biolegend, Cat #304042 (anti-human); Cat #103140 (anti-mouse)) antibodies. For all other models (xenografts), carrying cancer cells stably expressing a GFP-Luciferase reporter, only anti-CD45 staining was performed, while CTCs were identified based on GFP expression. The number of captured CTCs, including single CTCs, CTC clusters and CTC-WBC clusters, was determined while cells were still in the cassette. CTCs were then released from the cassette in DPBS (#14190169, Gibco) onto ultra-low attachment plates (#3471-COR, Corning). Representative pictures were taken at 40× magnification with Leica DM14000 fluorescent microscope using Leica LAS and analyzed with ImageJ.
as §1

LM2 xenografts = assay: LM2 xenograft, spontaneous CTC clusters and metastasis; assay type: in vivo, NSG mice; conditions: LM2 tumors; ouabain treatment

## C[C@@H]1O[C@@H](O[C@H]2C[C@@H](O)[C@]3(CO)[C@H]4[C@H](O)C[C@]5(C)[C@@H](C6=CC(=O)OC6)CC[C@]5(O)[C@@H]4CC[C@]3(O)C2)[C@H](O)[C@H](O)[C@H]1O [ouabain, Ouabain]
BR16 CTC-derived cells
  mean cluster size: significant decrease in mean cluster size
BR16 cells; cancer cells in lungs, pre-treated cells, day 1
  expression of cleaved caspase 3 compared to control cells: significant increase
BR16 cells; cells pre-treated 17 days in vitro, 20 nM, tail vein, day 0
  ability of BR16 cells to lodge in the lung tissue immediately after injection (bioluminescence flux): did not affect
BR16 cells; cells pre-treated 17 days in vitro, 20 nM, tail vein, day 1
  ability to survive during the first day upon arrival (bioluminescence flux): reduced ability to survive
BR16 cells; pre-treated cells, no further treatment in vivo, 72 days upon injection
  metastatic outgrowth: delayed metastatic outgrowth
BR16 xenografts
  frequency of single CTCs: increasing the frequency
  frequency of spontaneously-generated CTC clusters: reduced the frequency
  overall CTC numbers: without altering
  size of the primary tumor: without altering
  suppression of the total metastatic burden: 80.7 fold
LM2 xenografts
  CTC clusters (proportion): decrease in CTC clusters
  metastatic burden compared to control: reduced metastatic burden
  overall CTC numbers: without any change
  primary tumor size: without any change
  proportion of single CTCs: increase in the proportion of single CTCs
